We go through nine molecules from patent publication US6235786A, “Reverse hydroxamate inhibitors of matrix metalloproteinases” (Abbott Laboratories, priority 2000, dated 2001).

For the first assay, the target named is T1, stromelysin (Homo sapiens, UniProt P08254).
T1 construct: made in house; host or cells: E. coli
T1 sequence (P08254 100-272 limits assumed): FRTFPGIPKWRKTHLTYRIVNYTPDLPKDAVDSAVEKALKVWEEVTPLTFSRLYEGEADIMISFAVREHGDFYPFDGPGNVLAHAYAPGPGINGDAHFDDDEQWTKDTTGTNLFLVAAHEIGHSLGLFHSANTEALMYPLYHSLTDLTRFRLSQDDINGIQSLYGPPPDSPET
The assay is described as follows: Determination of Stromelysin Inhibition (cleavage of thiopeptide ester substrate, DTNB, 405 nm). In kind it is biochemical. The note with it: Table 1; recombinant truncated human stromelysin, pH 6.5, 30 minute assay at ambient temperature. Here is the method: The efficacy of the compounds of this invention as matrix metalloproteinase inhibitors was determined by measuring the inhibition of stromelysin. The inhibition of stromelysin by the compounds of this invention was determined as follows: Recombinant truncated stromelysin (human sequence) produced in E. coli was prepared by expression and purification of the protein as described by Ye et al. (Biochemistry, 1992, 31, 11231-11235, which is incorporated herein by reference). The enzyme was assayed by its cleavage of the thiopeptide ester substrate Ac-Pro-Leu-Gly-(2-mercapto-4-methyl-pentanoyl)-Leu-Gly-OEt as described by Weingarten and Feder (Anal. Biochem., 1985, 147, 437-440 (1985), which is incorporated herein by reference) as a substrate of vertebrate collagenase. The reported conditions were modified to allow assays to be carried out in a microtiter plate. Upon hydrolysis of the thioester bond, the released thiol group reacted rapidly with 5,5'-dithio-bis(2-nitrobenzoic acid) (DTNB) to produce a yellow color which was measured by a microtiter plate reader set at 405 nm. The rates of cleavage of the substrate by stromelysin in the presence or absence of inhibitors were measured in a 30 minute assay at ambient temperature. Solutions of the compounds in DMSO were prepared, and these were diluted at various concentrations into the assay buffer (50 mM MES/NaOH pH 6.5 with 10 mM CaCl2 and 0.2% Pluronic F-68), which was also used for dilution of the enzyme and substrate. The potency of the compounds (IC50) was calculated from the inhibition/inhibitor concentration data.
Usually IC50 stands for the concentration needed to halve the response being measured. For the molecule `CC(CCS(=O)(=O)c1ccc(Oc2ccccc2)cc1)N(O)C=O` (racemic) [Example 120, (±)-N-hydroxy-N-(1-methyl-3-((4-phenoxyphenyl)sulfonyl)propyl)formamide], the IC50 was 4.3 nM.
On the same count and under the same terms, the value for `CC(CCS(=O)(=O)c1ccc(Oc2ccc(OC(F)(F)F)cc2)cc1)N(O)C=O` (racemic) [Example 121, (±)-N-hydroxy-N-(1-methyl-3-((4-(4-(trifluoromethoxy)phenoxy)phenyl)-sulfonyl)propyl)formamide] was 130 nM; that for `CC1(C)NC(=O)N(C[C@@H](CCS(=O)(=O)c2ccc(Oc3ccccc3)cc2)N(O)C=O)C1=O` [Example 123, (R)-N-(1-((4,4-dimethyl-2,5-dioxo-1-imidazolidinyl)methyl)-3-((4-phenoxyphenyl)sulfonyl)propyl)-N-hydroxyformamide] was 270 nM.

For a further assay, the target named is T2, gelatinase-A (MMP-2) (Homo sapiens, UniProt P08253).
T2 construct: Recombinant active gelatinase-A (MMP-2) is purchased from Oncogene Research; purchased Oncogene Research
T2 sequence (P08253 110-660): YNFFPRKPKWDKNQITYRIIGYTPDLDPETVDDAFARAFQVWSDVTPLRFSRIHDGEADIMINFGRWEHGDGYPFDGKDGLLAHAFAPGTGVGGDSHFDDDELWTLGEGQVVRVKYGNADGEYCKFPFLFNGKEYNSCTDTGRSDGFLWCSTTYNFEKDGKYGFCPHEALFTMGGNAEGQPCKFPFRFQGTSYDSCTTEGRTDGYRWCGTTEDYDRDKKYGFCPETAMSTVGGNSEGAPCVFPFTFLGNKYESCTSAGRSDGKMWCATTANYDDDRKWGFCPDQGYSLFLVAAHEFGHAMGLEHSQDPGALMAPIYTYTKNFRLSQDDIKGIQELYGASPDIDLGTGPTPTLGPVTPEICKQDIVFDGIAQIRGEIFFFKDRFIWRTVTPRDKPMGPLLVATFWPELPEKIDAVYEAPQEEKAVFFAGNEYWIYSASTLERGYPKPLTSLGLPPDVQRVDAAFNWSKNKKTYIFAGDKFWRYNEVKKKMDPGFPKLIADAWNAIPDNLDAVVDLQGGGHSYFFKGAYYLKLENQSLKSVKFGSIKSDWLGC
Nature of the assay: Inhibition of Gelatinase A (MMP-2), cleavage of a fluorescent substrate. In kind it is biochemical. The note with it: Table 2; recombinant active gelatinase-A (MMP-2), pH 7.4, 40 min assay at ambient temperature. Here is the method: The efficacy of the compounds of this invention as matrix metalloproteinase inhibitors was also determined by measuring inhibition as outlined below for Gelatinase A, a member of this family of enzymes. Recombinant active gelatinase-A (MMP-2) is purchased from Oncogene Research. The enzyme is assayed by its cleavage of a fluorescent […] 150 uL volume in a microfluor plate as described in Science 1990, 247, 954-958. Upon cleavage of the substrate, the fluorescence of the EDANS group is increased 30-fold, and this increase is monitored using a f-max (Molecular Devices) fluorescent plate reader (ex: 335 nm; em: 485 nm). The rates of cleavage of the substrate by gelatinase-A in the presence or absence of inhibitors are measured in a 40 min assay at ambient temperature. Stock solutions of the compounds in DMSO are prepared, and these solutions are diluted into the assay buffer (50 mM Tris HCl, pH 7.4, with 150 mM NaCl and 10 mM CaCl2), which is also used for dilution of the enzyme and substrate.
With `O=CN(O)C1CCCCC1CS(=O)(=O)c1ccc(Oc2ccc(F)cc2)cc1` (racemic) [Example 134, (±)-2-(((4-(4-fluorophenoxy)phenyl)sulfonyl)methyl)cyclohexyl(hydroxy)formamide], the IC50 worked out at 120 nM.
The same measure, in the same setting: next, `CC(C)(CN(O)C=O)CS(=O)(=O)c1ccc(Oc2ccccc2)cc1` [Example 129, 2,2-dimethyl-3-((4-phenoxyphenyl)sulfonyl)propyl(hydroxy)formamide]: 4.3 nM.
The same measure, in the same setting: the value for `CC1(C)NC(=O)N(C[C@@H](CCS(=O)(=O)c2ccc(Oc3ccc(Cl)cc3)cc2)N(O)C=O)C1=O` [Example 130] was 12 nM; that for `CC(C)(CN(O)C=O)CS(=O)(=O)c1ccc(Oc2ccc(OC(F)(F)F)cc2)cc1` [Example 131, 2,2-dimethyl-3-((4-(4-(trifluoromethoxy)phenoxy)phenyl)sulfonyl)propyl(hydroxy)formamide] was 4.9 nM; that for `CN1C(=O)N(C[C@@H](CCS(=O)(=O)c2ccc(Oc3ccc(F)cc3)cc2)N(O)C=O)C(=O)C1(C)C` [Example 132, (1R)-3-((4-(4-fluorophenoxy)phenyl)sulfonyl)-1-((3,4,4-trimethyl-2,5-dioxo-1-imidazolidinyl)methyl)propyl(hydroxy)formamide] was 15 nM.
As for `O=CN(O)CC1(CS(=O)(=O)c2ccc(Oc3ccc(OC(F)(F)F)cc3)cc2)COCOC1` [Example 135, Hydroxy((5-(((4-(4-(trifluoromethoxy)phenoxy)phenyl)sulfonyl)methyl)-1,3-dioxan-5-yl)methyl)formamide], the IC50 was determined as 0.6 nM.
